According to patent US9072703B2 (Ipsen Pharma S.A.S., priority 2008, dated 2015):
Non-standard residues stand in square brackets, D forms with d. No end group written: not given here. *: point of attachment. Myristoyl = CCCCCCCCCCCCCC(=O)*; 12Ado = NCCCCCCCCCCCC(=O)O; Ac6c = NC1(C(=O)O)CCCCC1; Nle = CCCC[C@H](N)C(=O)O; Orn = NCCC[C@H](N)C(=O)O; Ac5c = NC1(C(=O)O)CCCC1; Aib = CC(C)(N)C(=O)O

Columns and labels:
[1] = Rat plasma half-life assay; type: in vitro ADME; settings: 37° C., LC-MS, read-out: Rat Plasma T½ (converted)
Method: (§1) B. Human and Rat Plasma Half-Life Assay
(§2) 50 μL was removed at various times, like at 0, 1, 2, 3, 4, 8, 24, 32, 48, 56, 72 hours, mixed with 5 μL formic acid and 150 μL acetonitrile in a microcentrifuge tube, vertexed, and centrifuged for 10 minutes at 10K rpm. The supernatant was transferred to an injection vial and analyzed by LC-MS. The LC-MS system consisted of an API4000 mass spectrometer with an ESI probe. Positive ion mode and full scan detection were used. HPLC separation was carried out on a Luna 3μ C8 (2), 2×30 mm column with a gradient from 90% A to 90% B in 10 minutes at a flow rate of 0.3 ml/min. Buffer A was 1% formic acid in water and buffer B was 1% formic acid acetonitrile.

[2] = Human plasma half-life assay; type: in vitro ADME; settings: 37° C., LC-MS, read-out: Human Plasma T½ (converted)
Method: as §1, §2

| Molecule | half-life at 0.1 mg/ml [1] | half-life at 0.1 mg/ml [2] |
| --- | --- | --- |
| CCCCCCCCCCCC(=O)NCCCC[C@H](NC(=O)[C@H](CCC(N)=O)NC(=O)[C@@H](NC(=O)[C@@H](NC(=O)[C@H](CC(N)=O)NC(=O)[C@H](Cc1c[nH]cn1)NC(=O)[C@H](CCCCN)NC(=O)[C@H](Cc1c[nH]c2ccccc12)NC(=O)[C@H](CC(=O)O)NC(=O)[C@H](CC(N)=O)NC(=O)[C@H](CCCCN)NC(=O)[C@H](CCCCN)NC(=O)CNC(=O)[C@H](CCCCN)NC(=O)[C@H](CCC(N)=O)NC(=O)[C@H](C)NC(=O)[C@H](CC(C)C)NC(=O)[C@H](CC(C)C)NC(=O)[C@H](Cc1c[nH]c2ccccc12)NC(=O)[C@H](CC(N)=O)NC(=O)[C@@H](NC(=O)[C@H](Cc1ccccc1)NC(=O)[C@H](CC(=O)O)NC(=O)[C@H](CCC(N)=O)NC(=O)[C@H](CCC(N)=O)NC(=O)[C@H](Cc1c[nH]cn1)NC(=O)[C@@H](NC(=O)[C@H](CCCCN)NC(=O)[C@H](CC(=O)O)NC(=O)[C@H](CCSC)NC(=O)[C@H](C)NC(=O)[C@@H](NC(=O)C1(NC(=O)[C@H](Cc2ccc(O)cc2)NC(=O)[C@H](CC(=O)O)NC(=O)[C@H](CO)NC(=O)[C@@H](NC(=O)[C@H](Cc2ccccc2)NC(=O)[C@@H](NC(=O)CNC(=O)[C@H](CCC(=O)O)NC(=O)[C@H](C)NC(=O)[C@@H](N)Cc2ccc(O)cc2)[C@@H](C)O)[C@@H](C)CC)CCCC1)[C@@H](C)CC)[C@@H](C)CC)C(C)C)[C@@H](C)CC)[C@@H](C)O)C(=O)O [Example 36, [A5c^11, Lys^43(N—C(O)—(CH2)10—CH3)]hGIP(1-43)-OH] | 3200 min | 888 min |
| CCCCCCCCCCCCCCCC(=O)NCCCC[C@H](NC(=O)[C@H](CCC(N)=O)NC(=O)[C@@H](NC(=O)[C@@H](NC(=O)[C@H](CC(N)=O)NC(=O)[C@H](Cc1c[nH]cn1)NC(=O)[C@H](CCCCN)NC(=O)[C@H](Cc1c[nH]c2ccccc12)NC(=O)[C@H](CC(=O)O)NC(=O)[C@H](CC(N)=O)NC(=O)[C@H](CCCCN)NC(=O)[C@H](CCCCN)NC(=O)CNC(=O)[C@H](CCCCN)NC(=O)[C@H](CCC(N)=O)NC(=O)[C@H](C)NC(=O)[C@H](CC(C)C)NC(=O)[C@H](CC(C)C)NC(=O)[C@H](Cc1c[nH]c2ccccc12)NC(=O)[C@H](CC(N)=O)NC(=O)[C@@H](NC(=O)[C@H](Cc1ccccc1)NC(=O)[C@H](CC(=O)O)NC(=O)[C@H](CCC(N)=O)NC(=O)[C@H](CCC(N)=O)NC(=O)[C@H](Cc1c[nH]cn1)NC(=O)[C@@H](NC(=O)[C@H](CCCCN)NC(=O)[C@H](CC(=O)O)NC(=O)[C@H](CCSC)NC(=O)[C@H](C)NC(=O)[C@@H](NC(=O)C1(NC(=O)[C@H](Cc2ccc(O)cc2)NC(=O)[C@H](CC(=O)O)NC(=O)[C@H](CO)NC(=O)[C@@H](NC(=O)[C@H](Cc2ccccc2)NC(=O)[C@@H](NC(=O)CNC(=O)[C@H](CCC(=O)O)NC(=O)[C@H](C)NC(=O)[C@@H](N)Cc2ccc(O)cc2)[C@@H](C)O)[C@@H](C)CC)CCCC1)[C@@H](C)CC)[C@@H](C)CC)C(C)C)[C@@H](C)CC)[C@@H](C)O)C(=O)O [Example 40, [A5c^11, Lys^43(N—C(O)—(CH2)14—CH3)]hGIP(1-43)-OH] | 1160 min | 1030 min |
| CCCCCCCCCCCCCCCC(=O)NCCC[C@H](NC(=O)CNC(=O)[C@H](CCCCN)NC(=O)[C@H](CCC(N)=O)NC(=O)[C@H](C)NC(=O)[C@H](CC(C)C)NC(=O)[C@H](CC(C)C)NC(=O)[C@H](Cc1c[nH]c2ccccc12)NC(=O)[C@H](CC(N)=O)NC(=O)[C@@H](NC(=O)[C@H](Cc1ccccc1)NC(=O)[C@H](CC(=O)O)NC(=O)[C@H](CCC(N)=O)NC(=O)[C@H](CCC(N)=O)NC(=O)[C@H](Cc1c[nH]cn1)NC(=O)[C@@H](NC(=O)[C@H](CCCCN)NC(=O)[C@H](CC(=O)O)NC(=O)[C@H](CCSC)NC(=O)[C@H](C)NC(=O)[C@@H](NC(=O)C1(NC(=O)[C@H](Cc2ccc(O)cc2)NC(=O)[C@H](CC(=O)O)NC(=O)[C@H](CO)NC(=O)[C@@H](NC(=O)[C@H](Cc2ccccc2)NC(=O)[C@@H](NC(=O)CNC(=O)[C@H](CCC(=O)O)NC(=O)[C@H](C)NC(=O)[C@@H](N)Cc2ccc(O)cc2)[C@@H](C)O)[C@@H](C)CC)CCCC1)[C@@H](C)CC)[C@@H](C)CC)C(C)C)C(=O)N[C@@H](CCCCN)C(=O)N[C@@H](CC(N)=O)C(=O)N[C@@H](CC(=O)O)C(=O)N[C@@H](Cc1c[nH]c2ccccc12)C(=O)N[C@@H](CCCCN)C(=O)N[C@@H](Cc1c[nH]cn1)C(=O)N[C@@H](CC(N)=O)C(=O)N[C@H](C(=O)N[C@H](C(=O)N[C@@H](CCC(N)=O)C(=O)N[C@@H](Cc1c[nH]cn1)C(=O)O)[C@@H](C)O)[C@@H](C)CC [Example 41, [A5c^11, Orn^32(N—C(O)—(CH2)14—CH3), His^43]hGIP(1-43)-OH] | 1370 min | 396 min |
| CCCCCCCCCCCCCCCC(=O)NCCC[C@H](NC(=O)[C@H](CCCCN)NC(=O)CNC(=O)[C@H](CCCCN)NC(=O)[C@H](CCC(N)=O)NC(=O)[C@H](C)NC(=O)[C@H](CC(C)C)NC(=O)[C@H](CC(C)C)NC(=O)[C@H](Cc1c[nH]c2ccccc12)NC(=O)[C@H](CC(N)=O)NC(=O)[C@@H](NC(=O)[C@H](Cc1ccccc1)NC(=O)[C@H](CC(=O)O)NC(=O)[C@H](CCC(N)=O)NC(=O)[C@H](CCC(N)=O)NC(=O)[C@H](Cc1c[nH]cn1)NC(=O)[C@@H](NC(=O)[C@H](CCCCN)NC(=O)[C@H](CC(=O)O)NC(=O)[C@H](CCSC)NC(=O)[C@H](C)NC(=O)[C@@H](NC(=O)C1(NC(=O)[C@H](Cc2ccc(O)cc2)NC(=O)[C@H](CC(=O)O)NC(=O)[C@H](CO)NC(=O)[C@@H](NC(=O)[C@H](Cc2ccccc2)NC(=O)[C@@H](NC(=O)CNC(=O)[C@H](CCC(=O)O)NC(=O)[C@H](C)NC(=O)[C@@H](N)Cc2ccc(O)cc2)[C@@H](C)O)[C@@H](C)CC)CCCC1)[C@@H](C)CC)[C@@H](C)CC)C(C)C)C(=O)N[C@@H](CC(N)=O)C(=O)N[C@@H](CC(=O)O)C(=O)N[C@@H](Cc1c[nH]c2ccccc12)C(=O)N[C@@H](CCCCN)C(=O)N[C@@H](Cc1c[nH]cn1)C(=O)N[C@@H](CC(N)=O)C(=O)N[C@H](C(=O)N[C@H](C(=O)N[C@@H](CCC(N)=O)C(=O)N[C@@H](Cc1c[nH]cn1)C(=O)O)[C@@H](C)O)[C@@H](C)CC [Example 42, [A5c^11, Orn^33(N—C(O)—(CH2)14—CH3), His^43]hGIP(1-43)-OH] | 1700 min | 378 min |
| H-YAEGTF[Ac6c]SDYSIAMDKIHQQDFVNWLLAQKGKKN[Orn](Myristoyl)WKHNITQ-OH [Example 18, [A6c^7, Orn^35(N—C(O)—(CH2)12—CH3)]hGIP(1-42)-OH] | 1000 min | 438 min |
| YAEGTFISDYSI[Aib]MDKIHQQDFVNWLLAQKGKKNDWKHNITQW-OH [Example 12, (Aib^13, Trp^43)hGIP(1-43)-OH] | 126 min | 414 min |
| YAEGTFISDYSI[Aib][Nle]DKIHQQDFVNWLLAQKGKKNDWKHNITQF-OH [Example 9, (Aib^13, Nle^14, Phe^43)hGIP(1-43)-OH] | 78 min | 414 min |
| YAEGTFISDY[Ac5c]IAMDKIHQQDFVNWLLAQKGCKNDWKHNI[Ac5c]Q-NH2 [Example 31, (A5c^11, 41, Cys^32)hGIP(1-42)-NH2] | 978 min | 1600 min |
| YAEGTFISDY[Ac5c]IAMDKIHQQDFVNWLLAQKGKKNDWKHNITQA-OH [Example 8, (A5c^11, Ala^43)hGIP(1-43)-OH] | 138 min | 444 min |
| YAEGTFISDY[Ac5c]IAMDKIHQQDFVNWLLAQKGKKNDWKHNITQT-OH [Example 10, (A5c^11, Thr^43)hGIP(1-43)-OH] | 126 min | 474 min |
| YAEGTFISDY[Ac5c]IAMDKIHQQDFVNWLLAQKGKKNDWKHNITQ[12Ado]-OH [Example 13, (A5c^11, Ado^43)hGIP(1-43)-OH] | 1130 min | 786 min |
| YAEGTFISDY[Ac5c]IAMDKIHQQDFVNWLLAQKGKKNDWKHNI[Ac5c]QC-NH2 [Example 33, (A5c^11, 41, Cys^43)hGIP(1-43)-NH2] | 390 min | 948 min |
| YAEGTFISDY[Ac6c]IA[Ac6c]DKIHQQDFVNWLLAQKGKKNDWKHNI[Ac6c]Q-OH [Example 11, (A6c^11, 14, 41)hGIP(1-42)-OH] | 516 min | 786 min |
| YAEGTFISDY[Ac6c]IA[Ac6c]DKIHQQDFVNWLLAQKGKKNDWKHN[Ac6c]TQ-OH [Example 14, (A6c^11, 14, 40)hGIP(1-42)-OH] | 288 min | 696 min |
| YAEGTF[Ac6c]SDYSIAMDKIHQQDFVNWLLAQKGKKNDWKHNI[Ac6c]Q-OH [Example 16, (A6c^7, 41)hGIP(1-42)-OH] | 78 min | 390 min |
| YAEGTF[Ac6c]SDYSIA[Nle]DKIHQQDFVNWLLAQKGKKNDWKHNI[Ac6c]Q-OH [Example 17, (A6c^7, 41, Nle^14)hGIP(1-42)-OH] | 114 min | 378 min |
